Results published in patent US9833497B2, “Human originated EGF domain proteins and use of the same” (CHENGDU SOURCEBIO LIMITED-LIABILITY COMPANY, priority 2013, dated 2017).

Assays:
Type in all cases: cell-based
E. coli DH5α = assay: Antibacterial activity: MIC and growth curve against E. coli DH5α in 96-well plate; settings: minimal inhibitory concentration against E. coli DH5α; 96-well plate, 5×10^5 CFU/mL, 37° C., judged after 8 h
In short: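 MIC taken as lowest protein level with no bacterial growth, tracked by A600 every 30 min during 37 °C, 175 rpm culture. Two-fold protein series 50-12.5 μg/mL final, triplicate wells, against 5×10^5 CFU/mL of LB-washed mid-log cells.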

E. coli BL21 = assay: MIC against Gram-negative bacteria: E. coli BL21
In short: (§1)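 Antibacterial activity of purified human EGF domain proteins: two-fold concentration series, triplicate wells, LB broth, 5×10^5 CFU/mL bacteria, 37° C shaking incubation. The lowest concentration without growth defines the MIC.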

Pseudomonas aeruginosa = assay: MIC against Gram-negative bacteria: Pseudomonas aeruginosa
In short: as §1

Klebsiella pneumonia = assay: MIC against Gram-negative bacteria: Klebsiella pneumonia
In short: as §1

Enterobacter cloacae = assay: MIC against Gram-negative bacteria: Enterobacter cloacae
In short: as §1

Aeromonas hydrophila = assay: MIC against Gram-negative bacteria: Aeromonas hydrophila
In short: as §1

Citrobacter diversus = assay: MIC against Gram-negative bacteria: Citrobacter diversus
In short: as §1

Moraxella catarrhalis = assay: MIC against Gram-negative bacteria: Moraxella catarrhalis
In short: as §1

Proteus mirabilis = assay: MIC against Gram-negative bacteria: Proteus mirabilis
In short: as §1

Proteus vulgaris = assay: MIC against Gram-negative bacteria: Proteus vulgaris
In short: as §1

Serratia marcescens = assay: MIC against Gram-negative bacteria: Serratia marcescens
In short: as §1

[1] = 96-well plate, 5×10^5 CFU/mL, 37° C., 10 h
[2] = E. coli BL21, 10 h cultivation at 37° C., 5×10^5 CFU/mL
[3] = P. aeruginosa, 10 h cultivation at 37° C., 5×10^5 CFU/mL
[4] = K. pneumonia, 10 h cultivation at 37° C., 5×10^5 CFU/mL
[5] = E. cloacae, 10 h cultivation at 37° C., 5×10^5 CFU/mL
[6] = A. hydrophila, 10 h cultivation at 37° C., 5×10^5 CFU/mL
[7] = C. diversus, 10 h cultivation at 37° C., 5×10^5 CFU/mL
[8] = M. catarrhalis, 10 h cultivation at 37° C., 5×10^5 CFU/mL
[9] = P. mirabilis, 10 h cultivation at 37° C., 5×10^5 CFU/mL
[10] = P. vulgaris, 10 h cultivation at 37° C., 5×10^5 CFU/mL
[11] = S. marcescens, 10 h cultivation at 37° C., 5×10^5 CFU/mL
[12] = 10 h cultivation at 37° C., 5×10^5 CFU/mL, two-fold serial dilution
[13] = E. coli BL21, 96-well plate, 5×10^5 CFU/mL, 37° C., 10 h
[14] = Pseudomonas aeruginosa, 96-well plate, 5×10^5 CFU/mL, 37° C., 10 h
[15] = Klebsiella pneumonia, 96-well plate, 5×10^5 CFU/mL, 37° C., 10 h
[16] = Enterobacter cloacae, 96-well plate, 5×10^5 CFU/mL, 37° C., 10 h
[17] = Aeromonas hydrophila, 96-well plate, 5×10^5 CFU/mL, 37° C., 10 h
[18] = Citrobacter diversus, 96-well plate, 5×10^5 CFU/mL, 37° C., 10 h
[19] = Moraxella catarrhalis, 96-well plate, 5×10^5 CFU/mL, 37° C., 10 h
[20] = Proteus mirabilis, 96-well plate, 5×10^5 CFU/mL, 37° C., 10 h
[21] = Proteus vulgaris, 96-well plate, 5×10^5 CFU/mL, 37° C., 10 h
[22] = Serratia marcescens, 96-well plate, 5×10^5 CFU/mL, 37° C., 10 h

PRT446 (DVDECVGLQPVCPQGTTCINTGGSFQCVSPECPEGSGNVSYVKTSPFQCE; listed as Homo sapiens)
25 µg/mL: MIC against P. mirabilis (Proteus mirabilis; [1]) | MIC against S. marcescens (Serratia marcescens; [1])
50 µg/mL: MIC against K. pneumonia (Klebsiella pneumonia; [1]) | MIC against A. hydrophila (Aeromonas hydrophila; [1]) | MIC against M. catarrhalis (Moraxella catarrhalis; [1])
12.5 µg/mL: MIC (E. coli DH5α) | MIC against E. coli BL21 (E. coli BL21; [1]) | MIC against P. aeruginosa (Pseudomonas aeruginosa; [1]) | MIC against E. cloacae (Enterobacter cloacae; [1]) | MIC against C. diversus (Citrobacter diversus; [1]) | MIC against P. vulgaris (Proteus vulgaris; [1])

PRT186 (STLSCADSPCFNGGSCRERNQGANYACECPPNFTGSNCE; listed as Homo sapiens)
50 µg/mL: MIC (μg/mL) E. coli BL21 (E. coli BL21; [2]) | MIC (μg/mL) E. cloacae (Enterobacter cloacae; [5])
25 µg/mL: MIC (μg/mL) K. pneumonia (Klebsiella pneumonia; [4]) | MIC (μg/mL) A. hydrophila (Aeromonas hydrophila; [6]) | MIC (μg/mL) M. catarrhalis (Moraxella catarrhalis; [8]) | MIC (μg/mL) P. vulgaris (Proteus vulgaris; [10])
12.5 µg/mL: MIC (E. coli DH5α) | MIC (μg/mL) P. aeruginosa (Pseudomonas aeruginosa; [3]) | MIC (μg/mL) C. diversus (Citrobacter diversus; [7]) | MIC (μg/mL) P. mirabilis (Proteus mirabilis; [9]) | MIC (μg/mL) S. marcescens (Serratia marcescens; [11])

PRT421 (DQDECLLLPGELCQHLCINTVGSYHCACFPGFSLQDDGRTCR; listed as Homo sapiens)
12.5 µg/mL: MIC (E. coli DH5α) | MIC (Pseudomonas aeruginosa; [3]) | MIC (Enterobacter cloacae; [5]) | MIC (Citrobacter diversus; [7]) | MIC (Proteus vulgaris; [10])
25 µg/mL: MIC (Proteus mirabilis; [9]) | MIC (Serratia marcescens; [11])
50 µg/mL: MIC (E. coli BL21; [2]) | MIC (Klebsiella pneumonia; [4]) | MIC (Aeromonas hydrophila; [6]) | MIC (Moraxella catarrhalis; [8])

PRT979 (LPDPCLSSPCAHGARCSVGPDGRFLCSCPPGYQGRSCR; listed as Homo sapiens)
25 µg/mL: MIC (Moraxella catarrhalis; M. catarrhalis, 10 h cultivation at 37° C.) | MIC (Proteus vulgaris; P. vulgaris, 10 h cultivation at 37° C.)
12.5 µg/mL: MIC (E. coli BL21; E. coli BL21, 10 h cultivation at 37° C.) | MIC (Klebsiella pneumonia; K. pneumonia, 10 h cultivation at 37° C.) | MIC (Aeromonas hydrophila; A. hydrophila, 10 h cultivation at 37° C.) | MIC (Proteus mirabilis; P. mirabilis, 10 h cultivation at 37° C.) | MIC (Serratia marcescens; S. marcescens, 10 h cultivation at 37° C.)
50 µg/mL: MIC (E. coli DH5α) | MIC (Pseudomonas aeruginosa; P. aeruginosa, 10 h cultivation at 37° C.) | MIC (Enterobacter cloacae; E. cloacae, 10 h cultivation at 37° C.)
100 µg/mL: MIC (Citrobacter diversus; C. diversus, 10 h cultivation at 37° C.)

PRT1163 (SVNSCAVNPCLHNGECVADNTSRGYHCRCPPSWQGDDCS; listed as Homo sapiens)
12.5 µg/mL: MIC (E. coli DH5α) | MIC P. aeruginosa (Pseudomonas aeruginosa; [12]) | MIC E. cloacae (Enterobacter cloacae; [12]) | MIC A. hydrophila (Aeromonas hydrophila; [12]) | MIC C. diversus (Citrobacter diversus; [12]) | MIC M. catarrhalis (Moraxella catarrhalis; [12]) | MIC P. mirabilis (Proteus mirabilis; [12]) | MIC P. vulgaris (Proteus vulgaris; [12])
25 µg/mL: MIC E. coli BL21 (E. coli BL21; [12]) | MIC K. pneumonia (Klebsiella pneumonia; [12]) | MIC S. marcescens (Serratia marcescens; [12])

PRT35 (AMDLCARRLLDPCEHQCDPETGRREHRAAGECLCYEGYMKDPVHKHLCI; listed as Homo sapiens)
25 µg/mL: MIC (μg/mL) P. aeruginosa (Pseudomonas aeruginosa; [14]) | MIC (μg/mL) A. hydrophila (Aeromonas hydrophila; [17]) | MIC (μg/mL) P. vulgaris (Proteus vulgaris; [21])
50 µg/mL: MIC (μg/mL) E. coli BL21 (E. coli BL21; [13]) | MIC (μg/mL) E. cloacae (Enterobacter cloacae; [16]) | MIC (μg/mL) M. catarrhalis (Moraxella catarrhalis; [19])
12.5 µg/mL: MIC (E. coli DH5α) | MIC (μg/mL) K. pneumonia (Klebsiella pneumonia; [15]) | MIC (μg/mL) C. diversus (Citrobacter diversus; [18]) | MIC (μg/mL) P. mirabilis (Proteus mirabilis; [20]) | MIC (μg/mL) S. marcescens (Serratia marcescens; [22])

PRT1285 (NQDDCRDHRCQNGAQCMDEVNSYSCLCAEGYSGQLCE; listed as Homo sapiens)
25 µg/mL: MIC against A. hydrophila (Aeromonas hydrophila; [17]) | MIC against M. catarrhalis (Moraxella catarrhalis; [19])
100 µg/mL: MIC against K. pneumonia (Klebsiella pneumonia; [15])
12.5 µg/mL: MIC (E. coli DH5α) | MIC against E. coli BL21 (E. coli BL21; [13]) | MIC against P. aeruginosa (Pseudomonas aeruginosa; [14]) | MIC against E. cloacae (Enterobacter cloacae; [16]) | MIC against C. diversus (Citrobacter diversus; [18]) | MIC against P. vulgaris (Proteus vulgaris; [21])
50 µg/mL: MIC against P. mirabilis (Proteus mirabilis; [20]) | MIC against S. marcescens (Serratia marcescens; [22])
